This experiment has as its target T1, human TLR9 (Homo sapiens, UniProt Q9NR96).
T1 construct: host or cells: HEK293 (HEK-Blue hTLR9)
T1 sequence (Q9NR96 26-1032): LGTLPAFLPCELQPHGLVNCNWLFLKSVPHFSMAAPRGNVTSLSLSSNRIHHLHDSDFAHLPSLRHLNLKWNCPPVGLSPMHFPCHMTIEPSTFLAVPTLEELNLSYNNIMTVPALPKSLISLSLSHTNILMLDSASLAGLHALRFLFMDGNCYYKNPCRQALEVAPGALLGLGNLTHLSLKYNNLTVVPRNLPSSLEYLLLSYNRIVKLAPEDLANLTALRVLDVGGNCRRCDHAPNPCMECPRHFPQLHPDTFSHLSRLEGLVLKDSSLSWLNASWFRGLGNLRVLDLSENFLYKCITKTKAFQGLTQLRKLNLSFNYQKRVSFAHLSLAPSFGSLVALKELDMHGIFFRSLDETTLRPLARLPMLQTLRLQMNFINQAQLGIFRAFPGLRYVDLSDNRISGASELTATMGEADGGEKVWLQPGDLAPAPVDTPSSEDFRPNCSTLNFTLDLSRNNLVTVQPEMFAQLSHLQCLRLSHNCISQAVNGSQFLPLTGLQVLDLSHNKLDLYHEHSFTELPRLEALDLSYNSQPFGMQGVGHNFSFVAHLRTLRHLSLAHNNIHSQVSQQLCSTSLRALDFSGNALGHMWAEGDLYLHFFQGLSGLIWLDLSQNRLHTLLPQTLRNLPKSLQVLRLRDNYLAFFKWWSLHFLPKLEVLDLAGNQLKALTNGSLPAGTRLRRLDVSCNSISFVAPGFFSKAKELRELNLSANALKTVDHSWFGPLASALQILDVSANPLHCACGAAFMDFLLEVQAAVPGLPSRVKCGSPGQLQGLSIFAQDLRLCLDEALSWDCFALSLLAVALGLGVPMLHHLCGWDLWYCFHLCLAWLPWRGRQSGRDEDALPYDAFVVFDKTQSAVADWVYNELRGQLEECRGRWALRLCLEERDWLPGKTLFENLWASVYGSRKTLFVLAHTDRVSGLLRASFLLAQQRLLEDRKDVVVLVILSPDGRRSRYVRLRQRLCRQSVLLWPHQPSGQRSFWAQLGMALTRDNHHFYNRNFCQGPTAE
Put plainly: HEK293-Blue-hTLR-9 cells assay. Type of experiment: cell-based. Conditions: HEK293-Blue-hTLR9 cells, ODN2006 stimulation, 20 hrs, SEAP reporter; read-out: HEK/hTLR9 IC50. Here is the method: The following tests were carried out in order to determine the activity of the compounds of formula (I) and (Ia) in HEK293-Blue-hTLR-7/8/9 cells assay.
HEK293-Blue-hTLR-9 Cells Assay:
A stable HEK293-Blue-hTLR-9 cell line was purchased from InvivoGen (Cat. #: hkb-htlr9, San Diego, Calif., USA). These cells were originally designed for studying the stimulation of human TLR9 by monitoring the activation of NF-κB. A SEAP (secreted embryonic alkaline phosphatase) reporter gene was placed under the control of the […] minimal promoter fused to five NF-κB and AP-1-binding sites. The SEAP was induced by activating NF-κB and AP-1 via stimulating HEK-Blue hTLR9 cells with TLR9 ligands. Therefore, the reporter expression was declined by TLR9 antagonist under the stimulation of a ligand, such as ODN2006 (Cat. #: tlr1-2006-1, Invivogen, San Diego, Calif., USA), for incubation of 20 hrs. The cell culture supernatant SEAP reporter activity was determined using QUANTI-Blue™ kit (Cat. #: rep-qb1, Invivogen, San Diego, Calif., USA) at a wavelength of 640 nm, a detection medium that turns purple or blue in the presence of alkaline phosphatase.
Then 20 μL of the supernatant from each well was incubated with 180 μL Quanti-blue substrate solution at 37° C. for 2 h and the absorbance was read at 620-655 nm using a spectrophotometer. The signaling pathway that TLR9 activation leads to downstream NF-κB activation has been widely accepted, and therefore similar reporter assay was modified for evaluating TLR9 antagonist.

On to `[2H]c1ccc2c(N3C[C@@H]4CN(c5ccc(CCN6C[C@H](OC)[C@@H](N)C6)cn5)CCN4[C@@H](C)C3)ccc(C#N)c2n1` [Example 122, 5-[(4S,9aR)-8-[5-[2-[(3S,4S)-3-amino-4-methoxy-pyrrolidin-1-yl]ethyl]-2-pyridyl]-4-methyl-3,4,6,7,9,9a-hexahydro-1H-pyrazino[1,2-a]pyrazin-2-yl]-2-deuterio-quinoline-8-carbonitrile], for which the IC50 amounted to 51 nM. Consider `C[C@@H]1CN(c2ccc(C#N)c3ncccc23)C[C@@H]2CN(CCc3ccc(N4CCN[C@@H](C)C4)cn3)CCN21` [Example 20, 5-[(4R,9aS)-4-methyl-8-[2-[5-[(3S)-3-methylpiperazin-1-yl]-2-pyridyl]ethyl]-3,4,6,7,9,9a-hexahydro-1H-pyrazino[1,2-a]pyrazin-2-yl]quinoline-8-carbonitrile], for which the IC50 was 56 nM. As for `Cc1nc(N2CCNCC2)ccc1CN1CCN2[C@@H](C1)CN(c1ccc(C#N)c3ncccc13)C[C@H]2C` [Example 60, 5-[(4R,9aS)-4-methyl-8-[(2-methyl-6-piperazin-1-yl-3-pyridyl)methyl]-3,4,6,7,9,9a-hexahydro-1H-pyrazino[1,2-a]pyrazin-2-yl]quinoline-8-carbonitrile], the IC50 amounted to 53 nM. Under `[2H]c1ccc2c(N3C[C@@H]4CN(c5ccc(CCN6C[C@@H](N)[C@@H](F)C6)nc5)CCN4[C@@H](C)C3)ccc(C#N)c2n1` [Example 117, 5-[(4S,9aR)-8-[6-[2-[(3R,4S)-3-amino-4-fluoro-pyrrolidin-1-yl]ethyl]-3-pyridyl]-4-methyl-3,4,6,7,9,9a-hexahydro-1H-pyrazino[1,2-a]pyrazin-2-yl]-2-deuterio-quinoline-8-carbonitrile] stands 42 nM; under `C[C@@H]1CN(c2ccc(C#N)c3ncccc23)C[C@@H]2CN(CCc3ccc(N4CC5(CNCCO5)C4)cc3)CCN21` [Example 28, 5-[(4R,9aS)-4-methyl-8-[2-[4-(5-oxa-2,8-diazaspiro[3.5]nonan-2-yl)phenyl]ethyl]-3,4,6,7,9,9a-hexahydro-1H-pyrazino[1,2-a]pyrazin-2-yl]quinoline-8-carbonitrile], 98 nM.

`CO[C@@H]1CN(c2ccc(CCN3CCN4[C@@H](C3)CN(c3ccc(C#N)c5ncccc35)C[C@H]4C)cc2)C[C@H]1N` [Example 26, 5-[(4R,9aS)-8-[2-[4-[(3R,4R)-3-amino-4-methoxy-pyrrolidin-1-yl]phenyl]ethyl]-4-methyl-3,4,6,7,9,9a-hexahydro-1H-pyrazino[1,2-a]pyrazin-2-yl]quinoline-8-carbonitrile]: the IC50 came out at 87 nM. Under `CO[C@H]1CN(c2ccc(CCN3CCN4[C@@H](C3)CN(c3ccc(C#N)c5ncccc35)C[C@H]4C)cn2)C[C@H]1N` [Example 24, 5-[(4R,9aS)-8-[2-[6-[(3R,4S)-3-amino-4-methoxy-pyrrolidin-1-yl]-3-pyridyl]ethyl]-4-methyl-3,4,6,7,9,9a-hexahydro-1H-pyrazino[1,2-a]pyrazin-2-yl]quinoline-8-carbonitrile] stands 45 nM; under `C[C@@H]1CN(c2ccc(C#N)c3ncccc23)C[C@@H]2CN(CCc3ccc(N4CCNCC4)cc3)CCN21` [Example 7, 5-[(4R,9aS)-4-methyl-8-[2-(4-piperazin-1-ylphenyl)ethyl]-3,4,6,7,9,9a-hexahydro-1H-pyrazino[1,2-a]pyrazin-2-yl]quinoline-8-carbonitrile], less than 32 nM; under `C[C@H]1CN(c2ccc(C#N)c3ncccc23)C[C@@H]2CN(c3ccc([C@@H]4CNCCO4)cc3)CCN21` [Example 125, 5-[(4S,9aS)-4-methyl-8-[4-[(2R)-morpholin-2-yl]phenyl]-3,4,6,7,9,9a-hexahydro-1H-pyrazino[1,2-a]pyrazin-2-yl]quinoline-8-carbonitrile], 120 nM. Under `C[C@@H]1CN(c2ccc(C#N)c3ncccc23)C[C@@H]2CN(Cc3cccc4c3CCNC4)CCN21` [Example 70, 5-[(4R,9aS)-4-methyl-8-(1,2,3,4-tetrahydroisoquinolin-5-ylmethyl)-3,4,6,7,9,9a-hexahydro-1H-pyrazino[1,2-a]pyrazin-2-yl]quinoline-8-carbonitrile] stands 97 nM. Under `C[C@@H]1CN(c2ccc(C#N)c3ncccc23)C[C@@H]2CN(Cc3cnc4c(c3)CNCC4)CCN21` [Example 6, 5-[(4R,9aS)-4-methyl-8-(5,6,7,8-tetrahydro-1,6-naphthyridin-3-ylmethyl)-3,4,6,7,9,9a-hexahydro-1H-pyrazino[1,2-a]pyrazin-2-yl]quinoline-8-carbonitrile] stands 69 nM; under `C[C@@H]1CN(c2ccc(C#N)c3ncccc23)C[C@@H]2CN(CCc3ccc(N4CC(C)(N)C4)nc3)CCN21` [Example 65, 5-[(4R,9aS)-8-[2-[6-(3-amino-3-methyl-azetidin-1-yl)-3-pyridyl]ethyl]-4-methyl-3,4,6,7,9,9a-hexahydro-1H-pyrazino[1,2-a]pyrazin-2-yl]quinoline-8-carbonitrile], 50 nM; under `C[C@@H]1CN(c2ccc(C#N)c3ncccc23)C[C@@H]2CN(Cc3cccc4c3CNCC4)CCN21` [Example 71, 5-[(4R,9aS)-4-methyl-8-(1,2,3,4-tetrahydroisoquinolin-8-ylmethyl)-3,4,6,7,9,9a-hexahydro-1H-pyrazino[1,2-a]pyrazin-2-yl]quinoline-8-carbonitrile], 79 nM.

For the molecule `C[C@@H]1CN(c2ccc(C#N)c3ncccc23)C[C@@H]2CN(c3ccnc(N4CCNCC4)c3)CCN21` [Example 32, 5-[(4R,9aS)-4-methyl-8-(2-piperazin-1-yl-4-pyridyl)-3,4,6,7,9,9a-hexahydro-1H-pyrazino[1,2-a]pyrazin-2-yl]quinoline-8-carbonitrile], the IC50 is 34 nM. The value for `C[C@@H]1CN(c2ccc(C#N)c3ncccc23)C[C@@H]2CN(c3ccnc(N4CC(C)(N)C4)c3)CCN21` [Example 56, 5-[(4R,9aS)-8-[2-(3-amino-3-methyl-azetidin-1-yl)-4-pyridyl]-4-methyl-3,4,6,7,9,9a-hexahydro-1H-pyrazino[1,2-a]pyrazin-2-yl]quinoline-8-carbonitrile] was less than 32 nM; that for `Cc1cnc(N2CCN3[C@@H](C2)CN(c2ccc(C#N)c4ncccc24)C[C@H]3C)nc1N1CCNCC1` [Example 43, 5-[(4R,9aR)-4-methyl-8-(5-methyl-4-piperazin-1-yl-pyrimidin-2-yl)-3,4,6,7,9,9a-hexahydro-1H-pyrazino[1,2-a]pyrazin-2-yl]quinoline-8-carbonitrile] was 78 nM. Under `Cc1cc(N2CCN3[C@@H](C2)CN(c2ccc(C#N)c4ncccc24)C[C@H]3C)cc(N2CC(C)(N)C2)n1` [Example 73, 5-[(4R,9aS)-8-[2-(3-amino-3-methyl-azetidin-1-yl)-6-methyl-4-pyridyl]-4-methyl-3,4,6,7,9,9a-hexahydro-1H-pyrazino[1,2-a]pyrazin-2-yl]quinoline-8-carbonitrile] stands less than 32 nM; under `[2H]c1ccc2c(N3C[C@@H]4CN(c5ccc(CN6C[C@@H](N)[C@H](OC)C6)c(C)n5)CCN4[C@@H](C)C3)ccc(C#N)c2n1` [Example 123, 5-[(4S,9aR)-8-[5-[[(3R,4R)-3-amino-4-methoxy-pyrrolidin-1-yl]methyl]-6-methyl-2-pyridyl]-4-methyl-3,4,6,7,9,9a-hexahydro-1H-pyrazino[1,2-a]pyrazin-2-yl]-2-deuterio-quinoline-8-carbonitrile], 107 nM.
